Reference: patent publication US11666650B2, “Immune composition comprising respiratory syncytial virus (RSV) G polypeptide” (ADVACCINE (SUZHOU) BIOPHARMACEUTICALS CO. LTD., priority 2019, dated 2023)

Experiments:
JAWSII cells = test: IL-1β inhibition in stimulated JAWSII cells; type: cell-based, mouse; conditions: immune regulator alone, LPS+Alum stimulated, 24 hours
Procedure: JAWSII cells (mouse bone marrow cells) were recovery from liquid nitrogen and put into a water bath at 37° C. The cells were washed twice with the MEM media. The recovered cells were cultured in 10 mL cMEM (MEM+20% FBS+5 ng/mL rmGM-CSF) for 5-7 days. The cells were ready for use after 2 passages.
The cell supernatant was collected for further analysis.
Each supernatant noted above was centrifuged under 12000 rpm at 4° C. for 5 minutes. The level of IL-1β (an immune active biomarker) was measured following the ELISA procedure provided below.
15. Calculate the IL-1β concentration of tested subject by standard curve. Inhibition percentage (%) was calculated as the percentage of the reduction of IL-1β level of each tested sample as compared with the positive control (LPS+Alum) and the blank control.

[1] = system: red blood cell suspension; test: Hemolytic assay of formulations; type: cell-based, Mouse
Procedure: Mouse blood was collected and added with 800 μl of 15 mg/ml of EDTA to prevent the coagulation. It was centrifuged at 1,500 rpm for 15 min followed by discarding of the supernatant. The pellet was resuspended into 1 ml PBS, and centrifugated at 1,500 rpm for 15 min. The procedure was repeated for approximately 2 or 3 times until the supernatant became clear. The pellet containing red blood cells was resuspended with PBS at 1:10 to get 10% of red cell suspension after discarding supernatant, then further diluted into 2% with PBS. Five hundred microliters of 2% red blood cell suspension were mixed with 500 μl of different formulations, respectively, for a period of 180 minutes at 37° C. The hemolysis was recorded by a camera from the beginning to the end. After that, sample was centrifuged at 1,500 rpm for 2 min, the absorbance of supernatant was measured at OD405nm and the results were statistically analyzed.

## C=CC[C@@H]1/C=C(\C)C[C@H](C)C[C@H](OC)[C@H]2O[C@@](O)(C(=O)C(=O)N3CCCC[C@H]3C(=O)O[C@H](/C(C)=C/[C@@H]3CC[C@@H](O)[C@H](OC)C3)[C@H](C)[C@@H](O)CC1=O)[C@H](C)C[C@@H]2OC [FK506]
JAWSII cells
  inhibition (immune suppression) of IL-1β level: around 100%

## CC(O)CO (stereo not drawn) [propylene glycol]
[1]
  hemolysis: Various degrees of hemolysis

## CO[C@H]1C[C@@H]2CC[C@@H](C)[C@@](O)(O2)C(=O)C(=O)N2CCCC[C@H]2C(=O)O[C@H]([C@H](C)C[C@@H]2CC[C@@H](O)[C@H](OC)C2)CC(=O)[C@H](C)/C=C(\C)[C@@H](O)[C@@H](OC)C(=O)[C@H](C)C[C@H](C)/C=C/C=C/C=C/1C [rapamycin]
JAWSII cells
  inhibition (immune suppression) of IL-1β level: around 60%
